The source of these data is patent publication US20250145599A1, “CERTAIN CHEMICAL ENTITIES, COMPOSITIONS, AND METHODS” (Retune Pharma Inc., priority 2022, published 2025).

A value given as a limit tells only on which side of the number the result lay.

Assay [1] deals with metastatic pancreatic cancer. As to conditions: clinical trials, incl. metastatic pancreatic cancer; cited from earlier work.
Assay [2] has as its target T1, IGF-1R (Homo sapiens, UniProt P08069). The conditions noted are these: cited from earlier work.
The subject of assay [3] is tumor cell lines. The conditions noted are these: variety of tumor cell lines; cited from earlier work.
The subject of assay [4] is IGF-1R-driven xenograft model. As to conditions: orally once daily; cited from earlier work.
The test system of assay [5] is adrenocortical carcinoma. As to conditions: Phase 3 study; cited from earlier work.
Assay [6] addresses T1, IGF-1R. As to the kind of experiment: IGF-1R biochemical assay (ADP-Glo). The conditions noted are these: read-out: IGF1R IC50. The procedure:
The inhibitory activity against IGF-1R was measured using ADP-Glo assay. The percent (%) inhibition at each concentration of compound is calculated based on and relative to the luminescence signal in the Max and Min control wells contained within each assay plate. The Max control wells contain enzyme and substrate as 0% inhibition, and the Min control wells only contain substrate without enzyme as 100% inhibition. The concentrations and % inhibition values for tested compounds are plotted and the concentration of compound required for 50% inhibition (IC50) is determined with a four-parameter logistic dose response equation.
Table 3 provides IC50 data of representative compounds against IGF-1R using ADP-Glo assay. The IC50 data are designated within the following ranges: A: ≤0.10 μM, B: >0.10 μM to ≤1 μM, C: >1 μM to ≤20 μM
For orientation: In ADP-Glo the light output rises with the ADP produced.

The subject of assay [7] is Ba/F3-TEL-IGF-1R cells. As to the kind of experiment: CellTiter-Glo luminescent cell viability assay. It counts as cell-based. The conditions noted are these: cellular IC50, Ba/F3-TEL-IGF-1R cells. Here is the method: The CellTiter-Glo luminescent cell viability assay was used to determine the inhibitory activity of the compounds against IGF-1R in Ba/F3-TEL-IGF-1R cells. […] The IC50 data are designated within the following ranges: A: ≤1 μM, B: >1 μM to ≤10 μM, C: >10 μM to ≤20 μM
Background: ATP-based viability assays read luminescence as a measure of living cells.

The subject of assay [8] is thyroid eye disease. The conditions noted are these: cited from earlier work.
For assay [9], the system named is malignancies. The conditions noted are these: Phase I trials; cited from earlier work.

T1 sequence (P08069 31-1367): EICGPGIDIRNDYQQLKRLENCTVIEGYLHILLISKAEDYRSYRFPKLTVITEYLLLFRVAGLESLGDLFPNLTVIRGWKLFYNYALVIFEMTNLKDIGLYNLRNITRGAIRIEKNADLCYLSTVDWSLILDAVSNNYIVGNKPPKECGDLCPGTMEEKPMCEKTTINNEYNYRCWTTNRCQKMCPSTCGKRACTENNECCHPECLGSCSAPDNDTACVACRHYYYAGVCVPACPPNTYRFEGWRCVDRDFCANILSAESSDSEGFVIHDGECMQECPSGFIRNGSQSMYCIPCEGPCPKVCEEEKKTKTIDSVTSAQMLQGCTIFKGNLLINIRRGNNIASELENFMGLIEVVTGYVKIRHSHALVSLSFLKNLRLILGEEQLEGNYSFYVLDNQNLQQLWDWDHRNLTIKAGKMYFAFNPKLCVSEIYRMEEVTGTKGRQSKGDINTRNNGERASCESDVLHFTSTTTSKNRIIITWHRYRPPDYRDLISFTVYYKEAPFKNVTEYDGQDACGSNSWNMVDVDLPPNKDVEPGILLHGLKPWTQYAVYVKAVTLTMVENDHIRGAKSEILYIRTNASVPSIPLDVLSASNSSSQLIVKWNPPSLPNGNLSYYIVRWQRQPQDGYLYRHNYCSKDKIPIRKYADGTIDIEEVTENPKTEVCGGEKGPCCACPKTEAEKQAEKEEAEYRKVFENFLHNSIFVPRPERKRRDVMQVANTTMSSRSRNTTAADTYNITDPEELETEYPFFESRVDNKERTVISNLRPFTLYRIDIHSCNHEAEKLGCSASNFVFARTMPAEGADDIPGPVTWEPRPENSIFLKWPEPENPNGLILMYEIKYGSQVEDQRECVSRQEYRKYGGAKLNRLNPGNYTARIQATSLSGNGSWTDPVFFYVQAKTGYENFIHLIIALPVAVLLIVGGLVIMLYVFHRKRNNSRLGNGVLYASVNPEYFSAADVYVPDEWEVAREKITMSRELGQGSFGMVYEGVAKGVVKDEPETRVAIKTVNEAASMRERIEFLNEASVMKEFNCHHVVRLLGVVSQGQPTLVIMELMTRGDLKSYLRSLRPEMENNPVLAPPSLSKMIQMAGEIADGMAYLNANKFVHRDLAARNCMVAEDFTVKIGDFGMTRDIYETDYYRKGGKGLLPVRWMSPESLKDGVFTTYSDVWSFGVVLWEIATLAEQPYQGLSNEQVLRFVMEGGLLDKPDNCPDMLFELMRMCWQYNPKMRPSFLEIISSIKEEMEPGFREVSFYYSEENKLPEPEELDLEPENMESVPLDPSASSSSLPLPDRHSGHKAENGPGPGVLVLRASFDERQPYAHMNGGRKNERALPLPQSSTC

In the case of ganitumab, the survival rates result in [1] is “largely ineffective at improving survival rates”.
Regarding `C[C@]1(O)C[C@@H](c2nc(-c3ccc4ccc(-c5ccccc5)nc4c3)c3c(N)nccn32)C1` [OSI-906, Linsitinib], the “inhibition of autophosphorylation of human IGF-1R” value in assay [2] is “potently and selectively inhibits autophosphorylation”. Moreover, the “in vitro antiproliferative effects” value in assay [3] was “in vitro antiproliferative effects”. In addition, the “in vivo anti-tumor efficacy” value in assay [4] is reported as “robust in vivo anti-tumor efficacy”. In addition, the overall survival entry in assay [5] was “did not increase overall survival”.
As to `C[C@]1(O)C[C@@H](n2nc(-c3ccc4ccc(-c5ccccc5F)nc4c3F)c(C(N)=O)c2N)C1` [Example C056, 5-amino-3-(8-fluoro-2-(2-fluorophenyl)quinolin-7-yl)-1-((1s,3s)-3-hydroxy-3-methylcyclobutyl)-1H-pyrazole-4-carboxamide], the IC50 was at most 100 nM in assay [6] and at most 1000 nM in assay [7].
For teprotumumab, the “inflammation in thyroid eye disease” value in [8] is given as “decrease inflammation”. Besides, the “effectiveness in treating malignancies” value in [9] was “little effectiveness”.
Turning to `CCOc1cc(-c2ccccc2)nc2cc(-c3nn([C@H]4C[C@@](C)(O)C4)c(N)c3C(N)=O)ccc12` [Example C036, 5-amino-3-(4-ethoxy-2-phenylquinolin-7-yl)-1-((1s,3s)-3-hydroxy-3-methylcyclobutyl)-1H-pyrazole-4-carboxamide], the concentration for half-maximal inhibition (IC50) in assay [6] was at most 100 nM; in assay [7], at most 1000 nM.
As to `COc1cc(-c2ccccc2)nc2cc(-c3nn([C@H]4C[C@@](C)(O)C4)c(N)c3C(N)=O)ccc12` [Example C032, 5-amino-1-((1s,3s)-3-hydroxy-3-methylcyclobutyl)-3-(4-methoxy-2-phenylquinolin-7-yl)-1H-pyrazole-4-carboxamide], the IC50 in [6] is at most 100 nM; in assay [7], at most 1000 nM.

A word on the IC50: it is the point on the concentration scale where inhibition reaches its midpoint.
